Measurements as given in patent publication US20130287873A1, “PHARMACEUTICAL COMPOSITION AND METHOD FOR PREPARING A MEDICATION FOR PROMOTING WOUND HEALING” (INDUSTRIAL TECHNOLOGY RESEARCH INSTITUTE, priority 2012, published 2013).

System: human umbilical vein endothelial cells
Experiment: Proliferation of human umbilical vein endothelial cells by MTT assay
Type: cell-based
Details: Table 4, 48 hours
Experimental: A growth factor, VEGF, or notoginsenoside R1, etc. were used as control groups to screen a plant extract for promoting proliferation of vein endothelial cells and estimating activity of the plant extract. The experimental method is described as follows. Human umbilical vein endothelial cells were inoculated in a 96 well plate coated with gelatin with a density of 5×10^3 cells/well, and cultured with M199 complete medium in a 37° C. incubator with 5% CO2 overnight. The next day, the medium in the 96 well plate was changed to a medium containing a test plant extract with a specific concentration and a fresh 5% serum without ECGS, and then the culture plate was incubated. After 48 hours, activity of cells in the culture plate were analyzed by MTT assay and quantitated to obtain the information of the-functional specice of plant, the best part of the plant and the best extraction method for the plant for promoting the proliferation of human umbilical vein endothelial cells.
The extract of whole plants of Sambucus formosana Nakai (Herb 1) and the extract of roots of Isatis indigotica Fort. (Herb 2) were diluted 10-fold from 100 μg/mL which was an effective concentration from the primary screening to 0.1 μg/mL to determine the effective range and dose-response of the herbal extracts. The results of the proliferation assay for cells treated with different single-plant extracts are shown in FIG. 1A and Table 4, the results of the activity assay for cells treated with a combination of plant extracts are shown in FIG. 1B and Table 5, and the results of the proliferation assay for cells treated with extracts of specific parts of the plant are shown in FIG. 1C and Table 6. The two kinds of herbs with a concentration of 100 μg/mL have significant effects for promoting growth of vein endothelial cells, and are capable of achieving a promoting effect equivalent to that of VEGF.

SMILES | Cell growth rate (%) (mean ± standard deviation) (0.005 μM) | Cell growth rate (%) (mean ± standard deviation) (0.05 μM) | Cell growth rate (%) (mean ± standard deviation) (0.5 μM) | Cell growth rate (%) (mean ± standard deviation) (5 μM) | Cell growth rate (%) (mean ± standard deviation) (0.05 μg/mL) | Cell growth rate (%) (mean ± standard deviation) (0.5 μg/mL) | Cell growth rate (%) (mean ± standard deviation) (5 μg/mL) | Cell growth rate (%) (mean ± standard deviation) (50 μg/mL)
C=CCSSCC=C [Diallyl disulfide (DADS), Diallyl disulfide] | 107 ± 6% | 110 ± 2% | 101 ± 9% | 108 ± 4% |  |  |  | 
C=CCSCC=C [Diallyl sulfide (DAS), Diallyl sulfide] | 113 ± 12% | 123 ± 11% | 108 ± 2% | 148 ± 1% |  |  |  | 
CC(C)=CCC[C@](C)(O[C@@H]1O[C@H](CO)[C@@H](O)[C@H](O)[C@H]1O)[C@H]1CC[C@]2(C)[C@@H]1[C@H](O)C[C@@H]1[C@@]3(C)CC[C@H](O)C(C)(C)[C@@H]3[C@@H](O[C@@H]3O[C@H](CO)[C@@H](O)[C@H](O)[C@H]3O[C@@H]3OC[C@@H](O)[C@H](O)[C@H]3O)C[C@]12C [Notoginsenoside R1] |  |  |  |  | 118 ± 5% | 95 ± 9% | 107 ± 18% | 91 ± 4%
